Molecules are shown by their SMILES. Residues, ends and D or L forms follow the SMILES beside them. *: point of attachment. Cbz = O=C(OCc1ccccc1)*; CH2Cl = ClC*

The target of one test is T1, prolyl endopeptidase (Bos taurus, UniProt Q9XTA2).
T1 construct: prolyl endopeptidase which was purified from bovine brain; from tissue; host or cells: bovine brain (purified by the method of J. Biochem., 94, 1179 (1983))
T1 sequence (Q9XTA2 whole entry): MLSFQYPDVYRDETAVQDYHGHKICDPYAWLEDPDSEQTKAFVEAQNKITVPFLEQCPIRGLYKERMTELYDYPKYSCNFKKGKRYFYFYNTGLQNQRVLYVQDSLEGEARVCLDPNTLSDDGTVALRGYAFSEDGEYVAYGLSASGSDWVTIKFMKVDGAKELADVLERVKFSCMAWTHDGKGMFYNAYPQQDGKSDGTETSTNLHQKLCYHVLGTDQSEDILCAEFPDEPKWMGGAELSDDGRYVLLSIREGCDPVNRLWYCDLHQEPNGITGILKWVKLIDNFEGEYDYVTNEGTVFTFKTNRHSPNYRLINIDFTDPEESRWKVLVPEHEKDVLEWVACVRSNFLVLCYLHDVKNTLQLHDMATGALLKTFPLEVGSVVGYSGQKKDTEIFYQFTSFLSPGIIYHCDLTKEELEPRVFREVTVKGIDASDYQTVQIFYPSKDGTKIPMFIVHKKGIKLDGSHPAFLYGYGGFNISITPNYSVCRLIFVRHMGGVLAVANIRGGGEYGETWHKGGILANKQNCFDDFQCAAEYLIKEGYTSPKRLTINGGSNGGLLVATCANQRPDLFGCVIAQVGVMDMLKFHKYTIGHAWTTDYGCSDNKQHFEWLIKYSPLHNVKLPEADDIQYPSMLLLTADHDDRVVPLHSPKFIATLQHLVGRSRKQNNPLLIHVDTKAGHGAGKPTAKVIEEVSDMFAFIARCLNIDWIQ
Description: Prolyl Endopeptidase Inhibitory Activity in Vitro. It counts as biochemical. To be noted: prolyl endopeptidase purified from bovine brain; substrate N-benzyloxycarbonyl-glycyl-prolyl-p-nitroanilide; pH 7.5, 37° C., 15 mins preincubation, 405 nm; read-out: Concentration for 50% inhibition IC50. The method, then:
Inhibitory activity of prolyl endopeptidase was measured by the following test system.
A mixed solution of 20 mM tris-HCl buffer (pH 7.5; 935 μl; containing 10 mM EDTA and 10 mM mercaptoethanol), a solution of a compound of the present invention in DMSO (10 μl) and a solution of prolyl endopeptidase which was purified from bovine brain (0.13 unit; prepared by the method described in J. Biochem., 94, 1179 (1983)) in tris-HCl buffer (15 μl) was preincubated for 15 mins at 37° C.
To the solution, 5 mM of N-benzyloxycarbonyl-glycyl-prolyl-p-nitroanilide (40 μl) in a mixture of 40% dioxane-60% water was added. The solution was incubated for 1 min at the same temperature.
Optical absorption (a1) at 405 nm of the solution, and optical absorption (a2) at 405 nm of the solution after more 30 mins' incubation at 37° C. were measured.
Optical absorptions (b1 and b2) of the solutions using DMSO instead of the solution of the compound of the present invention were also measured.
Inhibitory ratio was calculated by the following expression and IC50 (required concentration for 50% inhibition) was obtained (See Protein, Nucleic acid and Enzyme 25(6), 513, 1980). [formula]
In the case of `CN(Cc1ccccc1)C(=O)C=CC(=O)N1CCC[C@H]1C=O` [1 (s), N-[3-(N-benzyl-N-methylcarbamoyl)acryloyl]-L-prolinal], the IC50 was found to be 1.9 µM.
`Cc1ccc(CN(C(=O)CCC(=O)N2CCC[C@H]2C=O)c2ccccc2)cc1` [2 (n), N-[3-[N-(4-methylphenyl-methyl)-N-phenyl-carbamoyl]propanoyl]-L-prolinal]: the IC50 stood at 0.0019 µM.
Take `O=C[C@@H]1CCCN1C(=O)[C@@H]1CCC[C@H]1C(=O)NCc1ccccc1` [1 (x), N-[(1R,2R)-2-(N-benzylcarbamoyl)cyclopentane-1-carbonyl]-L-prolinal]: the IC50 turned out to be 0.014 µM.
Take `O=C[C@@H]1CCCN1C(=O)CCC(=O)NCCc1ccccc1` [Example 1, N-[3-[N-(2-phenylethyl)carbamoyl]propanoyl]-L-prolinal]: the IC50 worked out at 0.13 µM.
Regarding `O=C[C@@H]1CCCN1C(=O)CCC(=O)NCc1cccc2ccccc12` [2 (y), N-[3-[N-(1-naphthyl-methyl)carbamoyl]propanoyl]-L-prolinal], the IC50 was found to be 0.043 µM.
`O=C[C@@H]1CCCN1C(=O)CCC(=O)NCc1ccccc1` [1 (a), N-[3-(N-benzylcarbamoyl)propanoyl)-L-prolinal]: the IC50 turned out to be 0.23 µM.
Still for that read-out and setting: in the case of `O=C[C@@H]1CCCN1C(=O)CCC(=O)NCc1ccccc1Cl` [2 (e), N-[3-[N-(2-chlorobenzyl)-carbamoyl]propanoyl]-L-prolinal] it was 0.16 µM.
`Cc1ccc(CNC(=O)CCC(=O)N2CCC[C@H]2C=O)cc1` [2 (a), N-[3-[N-(4-methylbenzyl)-carbamoyl]propanoyl]-L-prolinal]: the IC50 stood at 0.023 µM.
For `O=C[C@@H]1CCCN1C(=O)CCC(=O)NCC(c1ccccc1)c1ccccc1` [1 (bb), N-[3-[N-(2,2-diphenylethyl)carbamoyl]propanoyl]-L-prolinal], the IC50 was found to be 1.2 µM.
As for `O=C[C@@H]1CCCN1C(=O)CCC(=O)NCCCCCc1ccccc1` [1 (h), N-[3-[N-(5-phenylpentyl)carbamoyl]propanol]-L-prolinal], the IC50 was 0.07 µM.
Still for that read-out and setting: the same measure for `O=C[C@@H]1CCCN1C(=O)CCC(=O)NCc1ccco1` [2 (dd), N-[3-[N-(2-furylmethyl)-carbamoyl]propanoyl]-L-prolinal]: 0.79 µM.

The test system of another test is prolyl endopeptidase.
Test: not given
To be noted: See J. Neurochem., 41, 69 (1983); cited from earlier work.
As for `O=C(NCC(=O)N1CCC[C@H]1C(=O)CCl)OCc1ccccc1` [N-benzyloxycarbonyl-glycyl-L-proplyl-chloromethane] (Cbz-Gly-Pro-CH2Cl), the “inhibition of prolyl endopeptidase (in words)” value is given as “strongly inhibit”.

(Values after patent US5254550A, “Prolinal derivatives and pharmaceutical compositions thereof” (Ono Pharmaceutical Co., Ltd., priority 1986, dated 1993).)
